# Assay results: BindingDB's records for doi:10.7270/Q2J38R0R (Burnham Center For Chemical Genomics, 2010)
# Molecular target: Intestinal-type alkaline phosphatase (Mus musculus, UniProt P24822)
# Experiment: mouse intestinal alkaline phosphatase activators, dose response, biochemical, luminescence, uHTS hits (AID 488783)
# Chain of Intestinal-type alkaline phosphatase (P24822 whole entry, looked up): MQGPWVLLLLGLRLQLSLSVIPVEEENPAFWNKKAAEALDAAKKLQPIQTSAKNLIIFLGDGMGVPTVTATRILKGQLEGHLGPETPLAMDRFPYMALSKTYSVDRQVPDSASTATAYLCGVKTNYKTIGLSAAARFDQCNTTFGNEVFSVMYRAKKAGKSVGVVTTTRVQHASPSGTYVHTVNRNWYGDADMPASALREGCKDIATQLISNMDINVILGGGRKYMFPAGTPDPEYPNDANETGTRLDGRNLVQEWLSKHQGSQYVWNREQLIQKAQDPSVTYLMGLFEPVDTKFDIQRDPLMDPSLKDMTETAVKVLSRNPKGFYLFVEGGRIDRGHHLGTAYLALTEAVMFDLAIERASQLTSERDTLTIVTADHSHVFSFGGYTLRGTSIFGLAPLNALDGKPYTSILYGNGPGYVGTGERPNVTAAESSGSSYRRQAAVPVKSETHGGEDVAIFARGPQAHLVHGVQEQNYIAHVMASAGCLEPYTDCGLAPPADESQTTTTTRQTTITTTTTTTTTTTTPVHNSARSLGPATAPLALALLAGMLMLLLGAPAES
row,SMILES,EC50
1,CN(CCO)c1ccc(CN=Nc2ccc([N+](=O)[O-])cc2S(=O)(=O)Nc2ccccc2C(=O)O)cc1,17.5 µM
2,"O=C(NN=CC1=CC(=O)C(=O)CC1)NN=CC1=CC(=O)C(=O)CC1 [1,3-bis[[(Z)-(3-hydroxy-4-oxocyclohexa-2,5-dien-1-ylidene)methyl]amino]urea]",4.96 µM
3,"O=C1CC(=O)c2c(O)cc(O)c(O)c2C1=O [4,5,7,8-tetrahydroxy-1,2-naphthoquinone]",9.93 µM
4,Cc1cc(=O)[nH]c(N=NCc2ccc(O)c(O)c2)n1 [MLS001194906],58.7 µM
